test system: pSTAT6 in BEAS-2B human cell line; assay: Inhibition of IL-13 induced pSTAT6 in BEAS; type: cell-based; conditions: IL-13 trigger, 30 min; predicted acid metabolite
Protocol: BEAS-2B human cell line was seeded (100.000 cells/well) and incubated for 48 h at 37° C., 5% CO2, 95% humidity. Compounds were added and incubated 30 min followed by IL-13 as trigger. After 30 min incubation, cells were lysed and pSTAT6 determined by Fastscan phospho-stat6 (Tyr641) sandwich ELISA kit (cell signaling). Inhibitors were tested at 11 consecutive 5-fold dilutions starting from 10 μM (10 μM-[…]) in duplicate. Calculation of IC50 data, curves and QC analysis were made using Excel tools and GraphPadPrism software. QC criteria parameters: Z′≥0.35, Hill Slope range 0.5 to 5, S:B>2.

SMILES	pIC50 (BEAS) predicted acid metabolite
COc1cc2c(cc1-n1nc(C(=O)NCCN3CCC(C(=O)O)CC3)c3cnc(-c4cnn5cccnc45)cc31)OCCN2 [Example A1, 1-(2-(1-(6-methoxy-3,4-dihydro-2H-benzo[b][1,4]oxazin-7-yl)-6-(pyrazolo[1,5-a]pyrimidin-3-yl)-1H-pyrazolo[4,3-c]pyridine-3-carboxamido)ethyl)piperidine-4-carboxylic acid, reference compound]	§ (pIC50<6.3)
COc1cc2c(cc1-n1nc(C(=O)NCCN3CCC(C(=O)O)CC3)c3cnc(-c4cnn5cccnc45)cc31)SCCN2 [Example A2, reference compound]	§§ (7.3>pIC50≥6.3)
COc1cc2c(cc1-n1nc(C(=O)NCCN3CC[C@H](C(=O)O)C3)c3cnc(-c4cnn5cccnc45)cc31)OCCN2 [Example A3, reference compound]	§ (pIC50<6.3)
COc1cc2c(cc1-n1nc(C(=O)NCCN3CC[C@@H](C(=O)O)C3)c3cnc(-c4cnn5cccnc45)cc31)OCCN2 [Example A4, reference compound]	§ (pIC50<6.3)
COc1cc2c(cc1-n1nc(NC(=O)OCCN3CCC(C(=O)O)CC3)c3cnc(-c4cnn5cccnc45)cc31)SCCN2 [Example A5, reference compound]	§§ (7.3>pIC50≥6.3)
COc1cc2c(cc1-n1nc(NC(=O)OCC(=O)O)c3cnc(-c4cnn5cccnc45)cc31)OCCN2 [Example A6, reference compound]	§ (pIC50<6.3)
COc1cc2c(cc1-n1nc(NC(=O)O[C@H]3C[C@@H](C(=O)O)C3)c3cnc(-c4cnn5cccnc45)cc31)OCCN2 [Example A7, reference compound]	§ (pIC50<6.3)
COc1cc2c(cc1-n1nc(NC(=O)OCCN3CCC(C(=O)O)CC3)c3cnc(-c4cnn5cccnc45)cc31)OCCN2 [Example A8, reference compound]	§ (pIC50<6.3)
COc1cc2c(cc1-n1nc(C(=O)O)c3cnc(-c4cnn5cccnc45)cc31)OCCN2 [Example A9, 1-(6-Methoxy-3,4-dihydro-2H-benzo[b][1,4]oxazin-7-yl)-6-(pyrazolo[1,5-a]pyrimidin-3-yl)-1H-pyrazolo[4,3-c]pyridine-3-carboxylic acid, reference compound]	§ (pIC50<6.3)
COc1cc2c(cc1-n1nc(NC(=O)OCC(=O)O)c3cnc(-c4cnn5cccnc45)cc31)SCCN2 [Example A10, 2-(((1-(6-Methoxy-3,4-dihydro-2H-benzo[b][1,4]thiazin-7-yl)-6-(pyrazolo[1,5-a]pyrimidin-3-yl)-1H-pyrazolo[4,3-c]pyridin-3-yl)carbamoyl)oxy)acetic acid, reference compound]	§ (pIC50<6.3)
COc1cc2c(cc1-n1nc(C(=O)NCCN3CCC(C(=O)O)CC3)c3cnc(Nc4ncc[nH]c4=O)cc31)OCCN2 [Example A11, reference compound]	§ (pIC50<6.3)
COc1cc2c(cc1-n1nc(C(=O)NCCN3CCC(CC(=O)O)CC3)c3cnc(-c4cnn5cccnc45)cc31)OCCN2 [Example A12, 2-(1-(2-(1-(6-methoxy-3,4-dihydro-2H-benzo[b][1,4]oxazin-7-yl)-6-(pyrazolo[1,5-a]pyrimidin-3-yl)-1H-pyrazolo[4,3-c]pyridine-3-carboxamido)ethyl)piperidin-4-yl)acetic acid, reference compound]	§ (pIC50<6.3)
